Assays:
IKZF1 = biological target: T1, IKZF1 (Homo sapiens, UniProt Q13422+Q96SW2); assay: Western-blot assay of substrate protein degradation in hPBMCs, IKZF1; format: cell-based; settings: 24 hours of compound treatment
T1 construct: endogenous in cells; host or cells: hPBMCs (Milecell Biotechnologies)

[1] = biological target: T2, human Cereblon WT GST-tagged protein (Homo sapiens, UniProt Q96SW2); assay: CRBN-binding affinity by HTRF (CEREBLON BINDING kit); settings: HTRF inhibitory activity, CEREBLON BINDING kit; read-out: HTRF IC50
T2 construct: purchased CISBIO 64BDCRBNPEH
T2 sequence (Q96SW2 whole entry): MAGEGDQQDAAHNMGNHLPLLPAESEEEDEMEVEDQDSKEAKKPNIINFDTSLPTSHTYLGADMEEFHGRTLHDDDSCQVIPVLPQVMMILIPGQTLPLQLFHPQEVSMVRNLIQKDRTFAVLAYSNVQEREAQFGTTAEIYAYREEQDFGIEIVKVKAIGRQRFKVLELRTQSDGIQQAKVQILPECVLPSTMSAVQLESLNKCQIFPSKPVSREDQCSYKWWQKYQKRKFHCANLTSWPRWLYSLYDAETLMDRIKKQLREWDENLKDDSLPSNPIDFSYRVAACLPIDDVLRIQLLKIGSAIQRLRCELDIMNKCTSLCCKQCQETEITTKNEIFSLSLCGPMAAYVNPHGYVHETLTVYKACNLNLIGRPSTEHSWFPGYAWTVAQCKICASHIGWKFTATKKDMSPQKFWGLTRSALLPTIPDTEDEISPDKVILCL

IKZF2 = biological target: T3, IKZF2 (Homo sapiens, UniProt Q96SW2+Q9UKS7); assay: Western-blot assay of substrate protein degradation in hPBMCs, IKZF2; format: cell-based; settings: 24 hours of compound treatment
T3 construct: endogenous in cells; host or cells: hPBMCs (Milecell Biotechnologies)
T3 sequence (Q9UKS7 whole entry): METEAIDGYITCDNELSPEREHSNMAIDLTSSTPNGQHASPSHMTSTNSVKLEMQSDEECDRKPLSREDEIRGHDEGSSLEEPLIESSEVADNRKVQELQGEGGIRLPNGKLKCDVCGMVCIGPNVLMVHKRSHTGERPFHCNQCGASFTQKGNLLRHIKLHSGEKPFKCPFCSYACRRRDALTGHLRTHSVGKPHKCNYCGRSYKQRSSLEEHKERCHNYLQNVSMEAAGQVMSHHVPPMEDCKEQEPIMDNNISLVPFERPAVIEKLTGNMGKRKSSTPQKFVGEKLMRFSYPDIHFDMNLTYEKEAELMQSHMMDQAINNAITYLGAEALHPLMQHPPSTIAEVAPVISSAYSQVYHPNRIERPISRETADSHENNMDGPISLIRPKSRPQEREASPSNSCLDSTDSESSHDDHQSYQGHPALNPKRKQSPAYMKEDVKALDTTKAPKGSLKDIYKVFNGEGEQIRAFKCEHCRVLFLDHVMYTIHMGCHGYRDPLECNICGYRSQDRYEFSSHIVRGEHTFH
T3 sequence (Q96SW2 whole entry): as the sequence (Q96SW2 whole entry) above
T3 sequence (Q16531 whole entry partner): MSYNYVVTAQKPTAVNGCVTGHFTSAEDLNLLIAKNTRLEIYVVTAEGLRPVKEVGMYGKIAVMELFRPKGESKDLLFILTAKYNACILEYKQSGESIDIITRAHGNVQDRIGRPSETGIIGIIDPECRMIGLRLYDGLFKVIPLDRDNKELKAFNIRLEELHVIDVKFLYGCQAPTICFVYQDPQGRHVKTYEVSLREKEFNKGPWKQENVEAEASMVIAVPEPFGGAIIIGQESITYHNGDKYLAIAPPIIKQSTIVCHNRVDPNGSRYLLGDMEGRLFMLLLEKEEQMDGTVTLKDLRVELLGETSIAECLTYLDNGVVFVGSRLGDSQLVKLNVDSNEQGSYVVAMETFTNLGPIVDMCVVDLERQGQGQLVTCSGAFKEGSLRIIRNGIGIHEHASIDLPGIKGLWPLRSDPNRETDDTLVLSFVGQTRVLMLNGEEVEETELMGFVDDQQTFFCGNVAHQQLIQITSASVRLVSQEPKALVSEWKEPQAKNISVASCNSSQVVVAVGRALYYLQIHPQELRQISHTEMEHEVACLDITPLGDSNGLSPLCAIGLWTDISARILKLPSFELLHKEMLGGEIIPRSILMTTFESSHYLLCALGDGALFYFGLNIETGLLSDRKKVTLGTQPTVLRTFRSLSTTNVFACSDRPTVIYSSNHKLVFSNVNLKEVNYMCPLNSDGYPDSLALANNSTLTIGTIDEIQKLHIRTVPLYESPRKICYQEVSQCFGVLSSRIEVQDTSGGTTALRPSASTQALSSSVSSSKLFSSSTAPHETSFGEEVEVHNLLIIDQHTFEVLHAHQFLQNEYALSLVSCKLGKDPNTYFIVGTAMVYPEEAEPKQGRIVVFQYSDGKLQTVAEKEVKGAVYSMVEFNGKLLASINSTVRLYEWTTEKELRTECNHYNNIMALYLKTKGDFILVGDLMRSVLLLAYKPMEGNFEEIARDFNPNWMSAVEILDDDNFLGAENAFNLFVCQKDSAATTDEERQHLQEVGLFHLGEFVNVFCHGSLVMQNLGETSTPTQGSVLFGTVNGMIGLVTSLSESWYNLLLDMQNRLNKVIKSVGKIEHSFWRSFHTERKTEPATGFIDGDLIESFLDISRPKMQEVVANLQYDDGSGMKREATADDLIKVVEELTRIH

CK1α = biological target: T4, CK1α (Homo sapiens, UniProt P48729+Q96SW2); assay: Western-blot assay of substrate protein degradation in hPBMCs, CK1α; format: cell-based; settings: 24 hours of compound treatment
T4 construct: endogenous in cells; host or cells: hPBMCs (Milecell Biotechnologies)

IKZF3 = biological target: T5, IKZF3 (Homo sapiens, UniProt Q96SW2+Q9UKT9); assay: Western-blot assay of substrate protein degradation in hPBMCs, IKZF3; format: cell-based; settings: 24 hours of compound treatment
T5 construct: endogenous in cells; host or cells: hPBMCs (Milecell Biotechnologies)
T5 sequence (Q9UKT9 whole entry): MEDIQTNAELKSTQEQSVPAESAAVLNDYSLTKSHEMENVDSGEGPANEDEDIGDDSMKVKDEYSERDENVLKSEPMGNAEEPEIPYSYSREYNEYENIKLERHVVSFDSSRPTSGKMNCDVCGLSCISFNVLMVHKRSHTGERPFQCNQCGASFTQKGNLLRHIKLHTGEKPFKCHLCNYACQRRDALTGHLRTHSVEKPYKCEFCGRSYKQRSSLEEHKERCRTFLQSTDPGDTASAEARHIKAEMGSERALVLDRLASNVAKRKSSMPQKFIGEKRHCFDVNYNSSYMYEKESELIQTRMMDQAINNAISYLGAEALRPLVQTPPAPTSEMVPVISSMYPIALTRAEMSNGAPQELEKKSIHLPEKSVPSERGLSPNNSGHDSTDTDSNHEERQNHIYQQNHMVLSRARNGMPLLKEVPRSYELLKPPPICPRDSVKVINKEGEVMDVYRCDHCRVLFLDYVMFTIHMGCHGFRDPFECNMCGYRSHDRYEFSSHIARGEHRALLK
T5 sequence (Q96SW2 whole entry): as the sequence (Q96SW2 whole entry) above
T5 sequence (Q16531 whole entry partner): as the sequence (Q16531 whole entry partner) above

WEE1 = biological target: T6, WEE1 (Homo sapiens, UniProt P30291+Q96SW2); assay: Western-blot assay of substrate protein degradation in hPBMCs, WEE1; format: cell-based; settings: 24 hours of compound treatment
T6 construct: endogenous in cells; host or cells: hPBMCs (Milecell Biotechnologies)
T6 sequence (P30291 whole entry): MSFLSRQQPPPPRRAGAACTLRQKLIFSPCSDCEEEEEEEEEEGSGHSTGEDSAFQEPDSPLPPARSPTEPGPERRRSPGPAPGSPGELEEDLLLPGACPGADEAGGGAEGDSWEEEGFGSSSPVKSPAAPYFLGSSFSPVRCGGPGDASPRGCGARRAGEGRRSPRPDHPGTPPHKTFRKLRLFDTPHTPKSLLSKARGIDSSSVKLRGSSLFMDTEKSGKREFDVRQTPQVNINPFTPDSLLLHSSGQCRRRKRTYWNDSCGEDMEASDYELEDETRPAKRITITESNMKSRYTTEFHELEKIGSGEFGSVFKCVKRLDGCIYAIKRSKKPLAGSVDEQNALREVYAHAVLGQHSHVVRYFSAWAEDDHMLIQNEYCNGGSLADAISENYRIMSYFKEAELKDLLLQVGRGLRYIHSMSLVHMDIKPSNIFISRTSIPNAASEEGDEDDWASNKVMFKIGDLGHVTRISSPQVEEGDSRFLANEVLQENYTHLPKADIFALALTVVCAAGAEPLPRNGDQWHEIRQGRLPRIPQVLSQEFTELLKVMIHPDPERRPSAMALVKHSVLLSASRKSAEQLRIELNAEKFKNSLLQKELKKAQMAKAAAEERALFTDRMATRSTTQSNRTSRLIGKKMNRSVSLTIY
T6 sequence (Q96SW2 whole entry): as the sequence (Q96SW2 whole entry) above
T6 sequence (Q16531 whole entry partner): as the sequence (Q16531 whole entry partner) above

GSPT1 = biological target: T7, GSPT1 (Homo sapiens, UniProt P15170+Q96SW2); assay: Western-blot assay of substrate protein degradation in hPBMCs, GSPT1; format: cell-based; settings: 24 hours of compound treatment
T7 construct: endogenous in cells; host or cells: hPBMCs (Milecell Biotechnologies)
T7 sequence (P15170 whole entry): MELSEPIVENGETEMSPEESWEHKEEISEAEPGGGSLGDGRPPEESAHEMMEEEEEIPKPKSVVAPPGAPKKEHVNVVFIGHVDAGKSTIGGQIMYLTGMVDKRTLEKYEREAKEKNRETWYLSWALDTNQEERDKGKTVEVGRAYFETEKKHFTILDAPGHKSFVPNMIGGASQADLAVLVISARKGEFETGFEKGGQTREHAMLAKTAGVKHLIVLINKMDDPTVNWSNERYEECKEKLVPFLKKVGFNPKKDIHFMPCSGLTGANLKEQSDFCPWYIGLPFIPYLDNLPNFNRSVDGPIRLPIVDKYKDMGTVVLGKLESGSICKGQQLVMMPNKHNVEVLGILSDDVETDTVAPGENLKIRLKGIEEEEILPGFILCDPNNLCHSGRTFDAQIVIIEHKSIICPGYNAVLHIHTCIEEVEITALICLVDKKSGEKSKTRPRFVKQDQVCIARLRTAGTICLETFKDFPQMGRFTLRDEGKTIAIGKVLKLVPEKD
T7 sequence (Q96SW2 whole entry): as the sequence (Q96SW2 whole entry) above
T7 sequence (Q16531 whole entry partner): as the sequence (Q16531 whole entry partner) above

[2] = compounds tested at 50 nM and 500 nM (concentration of the table not stated)
[3] = 50 nM and 500 nM tested (concentration behind the class not stated)

T1 sequence (Q13422 whole entry): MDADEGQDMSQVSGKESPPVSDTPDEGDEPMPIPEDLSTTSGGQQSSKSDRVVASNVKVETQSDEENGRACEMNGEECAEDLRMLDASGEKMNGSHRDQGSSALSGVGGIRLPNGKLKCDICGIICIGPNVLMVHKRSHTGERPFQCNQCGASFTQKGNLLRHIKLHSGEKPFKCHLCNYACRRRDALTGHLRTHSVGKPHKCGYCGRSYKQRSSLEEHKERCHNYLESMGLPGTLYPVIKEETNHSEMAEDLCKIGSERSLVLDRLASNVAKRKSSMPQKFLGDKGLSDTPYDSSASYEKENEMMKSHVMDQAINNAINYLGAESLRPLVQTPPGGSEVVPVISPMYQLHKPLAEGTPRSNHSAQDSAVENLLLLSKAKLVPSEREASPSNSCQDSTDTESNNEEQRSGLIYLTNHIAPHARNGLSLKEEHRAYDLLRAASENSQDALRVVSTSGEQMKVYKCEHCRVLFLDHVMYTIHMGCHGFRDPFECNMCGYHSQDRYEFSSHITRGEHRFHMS
T1 sequence (Q96SW2 whole entry): as the sequence (Q96SW2 whole entry) above
T1 sequence (Q16531 whole entry partner): as the sequence (Q16531 whole entry partner) above

| SMILES | IKZF 1 substrate protein remaining % (IKZF1; [2]) | IC50 [1] | IKZF2 substrate protein remaining % (IKZF2; [2]) | CK1a substrate protein remaining % (CK1α; [2]) | IKZF3 substrate protein remaining % (IKZF3; [2]) | Weel substrate protein remaining % (WEE1; [2]) | GSPT1 substrate protein remaining % (GSPT1; [2]) | IKZF 1 substrate protein remaining % (IKZF1; [3]) | IKZF2 substrate protein remaining % (IKZF2; [3]) | CK1a substrate protein remaining % (CK1α; [3]) | IKZF3 substrate protein remaining % (IKZF3; [3]) | Weel substrate protein remaining % (WEE1; [3]) | GSPT1 substrate protein remaining % (GSPT1; [3]) |
| --- | --- | --- | --- | --- | --- | --- | --- | --- | --- | --- | --- | --- | --- |
| O=C1CCC(N2Cc3cc(CN4CCN(c5nsc6cc(F)ccc56)CC4)ccc3C2=O)C(=O)N1 (centres unmarked) [GT-05332, 3-(5-((4-(6-fluorobenzo[d]isothiazol-3-yl)piperazin-1-yl)methyl)-1-oxoisoindolin-2-yl)piperidine-2,6-dione] | B (80%< substrate protein remaining %≤ 100%) | < 500 nM | A (0% ≤ substrate protein remaining % ≤ 80%) | B (80%< substrate protein remaining %≤ 100%) | B (80%< substrate protein remaining %≤ 100%) | B (80%< substrate protein remaining %≤ 100%) | B (80%< substrate protein remaining %≤ 100%) | – | – | – | – | – | – |
| O=C1CCC(N2Cc3cc(CN4CCN(c5nc(N6CCCC6)nc6c5SCC6)CC4)ccc3C2=O)C(=O)N1 (centres unmarked) [GT-05389, 3-(1-oxo-5-((4-(2-(pyrrolidin-1-yl)-6,7-dihydrothieno[3,2-d]pyrimidin-4-yl)piperazin-1-yl)methyl)isoindolin-2-yl)piperidine-2,6-dione] | A (0% ≤ substrate protein remaining % ≤ 80%) | < 500 nM | A (0% ≤ substrate protein remaining % ≤ 80%) | B (80%< substrate protein remaining %≤ 100%) | B (80%< substrate protein remaining %≤ 100%) | B (80%< substrate protein remaining %≤ 100%) | B (80%< substrate protein remaining %≤ 100%) | – | – | – | – | – | – |
| O=C1CCC(N2Cc3cc(CN4CCN(c5nc(N6CCC6)nc6c5SCC6)CC4)ccc3C2=O)C(=O)N1 (centres unmarked) [GT-05900, 3-(5-((4-(2-(azetidin-1-yl)-6,7-dihydrothieno[3,2-d]pyrimidin-4-yl)piperazin-1-yl)methyl)-1-oxoisoindolin-2-yl)piperidine-2,6-dione] | – | < 500 nM | – | – | – | – | – | B (80%< substrate protein remaining %≤ 100%) | A (0% ≤ substrate protein remaining % ≤ 80%) | B (80%< substrate protein remaining %≤ 100%) | A (0% ≤ substrate protein remaining % ≤ 80%) | B (80%< substrate protein remaining %≤ 100%) | B (80%< substrate protein remaining %≤ 100%) |
| O=C1CCC(N2C(=O)c3ccc(CN4CCN(c5cccs5)CC4)cc3C2=O)C(=O)N1 (centres unmarked) [GT-06212, 2-(2,6-dioxopiperidin-3-yl)-5-((4-(thiophen-2-yl)piperazin-1-yl)methyl)isoindoline-1,3-dione] | – | < 500 nM | – | – | – | – | – | B (80%< substrate protein remaining %≤ 100%) | A (0% ≤ substrate protein remaining % ≤ 80%) | B (80%< substrate protein remaining %≤ 100%) | B (80%< substrate protein remaining %≤ 100%) | B (80%< substrate protein remaining %≤ 100%) | A (0% ≤ substrate protein remaining % ≤ 80%) |
| Cc1ccc(N2CCN(Cc3ccc4c(c3)C(=O)N(C3CCC(=O)NC3=O)C4=O)CC2)s1 (centres unmarked) [GT-06213, 2-(2,6-dioxopiperidin-3-yl)-5-((4-(5-methylthiophen-2-yl)piperazin-1-yl)methyl)isoindoline-1,3-dione] | – | 1500 to 1900 nM | – | – | – | – | – | B (80%< substrate protein remaining %≤ 100%) | A (0% ≤ substrate protein remaining % ≤ 80%) | B (80%< substrate protein remaining %≤ 100%) | B (80%< substrate protein remaining %≤ 100%) | B (80%< substrate protein remaining %≤ 100%) | A (0% ≤ substrate protein remaining % ≤ 80%) |
| O=C1CCC(N2C(=O)c3ccc(CN4CCN(c5ccsc5)CC4)cc3C2=O)C(=O)N1 (centres unmarked) [GT-06215, 2-(2,6-dioxopiperidin-3-yl)-5-((4-(thiophen-3-yl)piperazin-1-yl)methyl)isoindoline-1,3-dione] | – | 500 to 1000 nM | – | – | – | – | – | B (80%< substrate protein remaining %≤ 100%) | B (80%< substrate protein remaining %≤ 100%) | A (0% ≤ substrate protein remaining % ≤ 80%) | A (0% ≤ substrate protein remaining % ≤ 80%) | A (0% ≤ substrate protein remaining % ≤ 80%) | B (80%< substrate protein remaining %≤ 100%) |
| Cc1ccc(C2=CCN(Cc3ccc4c(c3)C(=O)N(C3CCC(=O)NC3=O)C4=O)CC2)s1 (centres unmarked) [GT-06220, 2-(2,6-dioxopiperidin-3-yl)-5-((4-(5-methylthiophen-2-yl)-3,6-dihydropyridin-1(2H)-yl)methyl)isoindoline-1,3-dione] | – | 1500 to 1900 nM | – | – | – | – | – | A (0% ≤ substrate protein remaining % ≤ 80%) | A (0% ≤ substrate protein remaining % ≤ 80%) | A (0% ≤ substrate protein remaining % ≤ 80%) | A (0% ≤ substrate protein remaining % ≤ 80%) | A (0% ≤ substrate protein remaining % ≤ 80%) | A (0% ≤ substrate protein remaining % ≤ 80%) |
| O=C1CCC(N2C(=O)c3ccc(CN4CC=C(c5ccco5)CC4)cc3C2=O)C(=O)N1 (centres unmarked) [GT-06222, 2-(2,6-dioxopiperidin-3-yl)-5-((4-(furan-2-yl)-3,6-dihydropyridin-1(2H)-yl)methyl)isoindoline-1,3-dione] | – | 1000 to 1500 nM | – | – | – | – | – | A (0% ≤ substrate protein remaining % ≤ 80%) | A (0% ≤ substrate protein remaining % ≤ 80%) | A (0% ≤ substrate protein remaining % ≤ 80%) | A (0% ≤ substrate protein remaining % ≤ 80%) | A (0% ≤ substrate protein remaining % ≤ 80%) | A (0% ≤ substrate protein remaining % ≤ 80%) |
| O=C1CCC(N2C(=O)c3ccc(CN4CC=C(c5ccoc5)CC4)cc3C2=O)C(=O)N1 (centres unmarked) [GT-06223, 2-(2,6-dioxopiperidin-3-yl)-5-((4-(furan-3-yl)-3,6-dihydropyridin-1(2H)-yl)methyl)isoindoline-1,3-dione] | – | 1000 to 1500 nM | – | – | – | – | – | A (0% ≤ substrate protein remaining % ≤ 80%) | B (80%< substrate protein remaining %≤ 100%) | A (0% ≤ substrate protein remaining % ≤ 80%) | A (0% ≤ substrate protein remaining % ≤ 80%) | A (0% ≤ substrate protein remaining % ≤ 80%) | A (0% ≤ substrate protein remaining % ≤ 80%) |
| O=C1CCC(N2C(=O)c3ccc(CN4CCC(=C5CCOc6cc(F)ccc65)CC4)cc3C2=O)C(=O)N1 (centres unmarked) [GT-06238, 2-(2,6-dioxopiperidin-3-yl)-5-((4-(7-fluorochroman-4-ylidene)piperidin-1-yl)methyl)isoindoline-1,3-dione] | B (80%< substrate protein remaining %≤ 100%) | 1000 to 1500 nM | A (0% ≤ substrate protein remaining % ≤ 80%) | B (80%< substrate protein remaining %≤ 100%) | A (0% ≤ substrate protein remaining % ≤ 80%) | B (80%< substrate protein remaining %≤ 100%) | A (0% ≤ substrate protein remaining % ≤ 80%) | – | – | – | – | – | – |
| Cc1csc2ncnc(N3CCN(Cc4ccc5c(c4)C(=O)N(C4CCC(=O)NC4=O)C5=O)CC3)c12 (centres unmarked) [GT-06304, 2-(2,6-dioxopiperidin-3-yl)-5-((4-(5-methylthieno[2,3-d]pyrimidin-4-yl)piperazin-1-yl)methyl)isoindoline-1,3-dione] | – | 500 to 1000 nM | – | – | – | – | – | A (0% ≤ substrate protein remaining % ≤ 80%) | A (0% ≤ substrate protein remaining % ≤ 80%) | B (80%< substrate protein remaining %≤ 100%) | B (80%< substrate protein remaining %≤ 100%) | B (80%< substrate protein remaining %≤ 100%) | B (80%< substrate protein remaining %≤ 100%) |
